Data reported in patent US20210220241A1, “Body Sculpting” (Sculpt B.V., priority 2014, published 2021).
Structures can show the parent of a compound that is named as a salt. Where two headings read alike, the source gives them in different places.

Key:
[1] = test system: human fat suspension; assay: In vitro glycerol production assay, 250 mg/ml human fat suspension (Example 9); format: cell-based; conditions: for Glycerol production (FIG. 20): 250 mg/ml human fat suspension, 4 hrs at 37 degrees Celsius; for Glycerol content: 4 hrs at 37° C.
Procedure: Test compounds were added at a concentration as indicated and vials were incubated for 4 hrs at 37° C. Vials were mixed every hour. Glycerol production in 4 hrs was calculated by analyzing glycerol content of the control (a suspension which was not incubated but instead immediately frozen) vs control samples that were incubated for 4 hours. The produced glycerol quantity was set as 100%. The glycerol content of experimental samples was expressed as % of the control.
Experimental samples were frozen after incubation. The fat pellet was removed and upon defrosting, samples were spun down (13000 rpm for 15 min at 4° C.), and clear supernatant was pipetted off and frozen until analysis.
Glycerol was analyzed using an enzymatic kit (Glycerol Assay Kit, Sigma Aldrich). Briefly, in a 96 well plate (Corning), 100 microliter glycerol assay reaction mix was added to 10 microliter samples of supernatant and left to incubate for 20 minutes after shaking for 15 seconds. Absorbance was read by a platereader (Thermo Multiskan FC) at 570 nm. A glycerol calibration line (0.015 microM-1000 microM) was used for quantification.

[2] = test system: lipase; conditions: inhibitor added 5 minutes before, relative to control; for Effect on hydrolysis of octopamine decanoate in fat suspension: octopamine decanoate 10 microM; for Effect on hydrolysis of synephrine decanoate in fat suspension: synephrine decanoate 10 microM
[3] = Skin and fat penetration assay, cubes of human fat with skin (Example 8); format: in vitro ADME
Procedure: Cubes of human fat (5×5×5 cm) with skin attached from obese female subjects that underwent esthetic surgery was dissected at 4° C. Cubes were transferred to containers so the skin would overlay the rim of the container. 0.25 ml of hydrogels comprising 2.75 mg/ml free octopamine, 5 mg/ml octopamine decanoate or 3.98 mg/ml octopamine pentanoate were applied once and left to penetrate for 20 hrs. Cubes were subsequently frozen at −80° C.
Upon defrosting, skin was carefully removed taking care not to contaminate the underlying fat. The fat was dissected to yield a column of 1×1 cm of fat that was directly under the site of application. The column was sliced to yield 0.5 cm thick slices covering 0-2cm fat depth under the site of application. Tissue was sonicated in 5 ml PBS (5 mM glucose), samples were spun down (13000 rpm for 30 min at 4° C.). Clear supernatant was removed with an injection needle and syringe and frozen until analysis. Analysis of octopamine was performed as described in Example 7.

[4] = Plasma levels of octopamine in human volunteers (Example 10); format: in vivo
Procedure: After thorough washing of hands, blood was sampled using […]. Blood (40 microliter) was sampled using a capillary that protruded the cap of the vial and spun down into 300 microliter vials containing 10 microliter of heparin 20 IE/ml. Plasma was pipetted off and transferred to 300 microliter vials and stored at -20° C. until analysis. Octopamine was analyzed as described in Example 7. […] FIG. 17b), and of octopamine pentanoate (3.98 mg/ml, 2.5 ml, once daily); FIG. 17c). Experiments are an average of one or two experiments (n=1-2).

[5] = Skin penetration chamber, human skin (Example 7); format: in vitro ADME; conditions: 0.25 ml hydrogel 2.75 mg/ml, human skin 6.25 cm^2, 2 hours
Procedure: The chamber was thermostated at 37° C. Samples were drawn from the PBS pottered tissue with a 1 ml syringe and analyzed using LC-mass spectrometry. Given the full conversion, this assay evaluates the total penetration of octopamine prodrug through skin based on equal amounts of octopamine, and compares this to the penetration of an equal amount of octopamine itself. Samples were analyzed using HPLC masspectrometry. A Shimadzu HPLC (LC20AD pump and […] injector) was used in conjunction with a sciex API 4000 Masspectrometer. The HPLC column was a Phenomenex, Synergi Max (BOL-P-RP2.5-036), 3.0×100mm, […], thermostated at 35° C. The mobile phase consisted of Eluent A: 0.1% formic acid (“FA”) in ultrapure water (“UP”) and Eluent B: 70% acetonitrile (“ACN”) +0.1% FA at a total flow of 0.3 ml/min. […] UP/ACN/FA =50/50/0.1. […] Gradients were maintained at 100% B for 0.5 minute. […] Samples were centrifugated for 5 mins at 13000 rpm and 14 μL 0.1% FA in UP was added to 6 μL supernatant and vortexed for 10 sec. The autoinjector was programmed to add 20 μl 0.5 mg/ml […] reagent (online) and inject 35 μl. The […] reagent was prepared by dissolving 5 mg […] in 4.5 ml UP, 5 ml 0.25 M NaHCO3, 0.5 ml methanol (“MeOH”) and 20 microliter 2-mercapto-ethanol.

[6] = test system: human fat suspension; assay: In vitro assay of glycerol production in human fat (Example 3); format: cell-based; conditions: 2 hours at 37 degrees Celsius
Procedure: Human fat tissue was pottered using a teflon potter in 10 ml PBS with 6 mM Glucose (2.4 gram fat tissue per 10 ml). The suspension was transferred to a 50 ml beaker and was gently stirred at 37 degrees Celsius to maintain the homogeneous nature. 0.3 ml suspension was transferred to 2 ml reaction vials, spiked with octopamine (end concentration 1 microM) and octopamine decanoate (end concentration 10 microM and PBS/glucose were added until 2 ml end volume. Vials were incubated at 37 degrees Celsius for 2 hours.
Samples were spun off at 4000 rpm for 2 min and 10 microliter samples were taken after removal of floating fat with a tissue.
(§1) Samples were analyzed using an enzymatic kit (Sigma Aldrich) and fluorescence intensity was measured using direct flow injection (Vici valve in combination with Shimadzu 10 ADvp HPLC pump at 0.15 ml/min, thermo 15*2.1 C18 column prior to valve and using ultrapure water as mobile phase) of 20 microliter into a HPLC fluorescence detector (Shimadzu RF 10Ax1). Calibration was performed by preparation of calibration samples 2-1000 microM.

[7] = Stability / hydrolysis in PBS at 37 degrees (Example 6); format: physicochemical
Procedure: Samples were analyzed using HPLC UV.

[8] = test system: human volunteers; assay: Application on human volunteers: waistline and skinfold (Example 10); format: in vivo; conditions: for Decrease of waistline: same molar concentration
Procedure: For abdominal/hip experiments 2 male volunteers […] (BMI 25.5 and 28 resp.) monitored belly circumference, and skinfold at belly and hip on a daily basis (8 am mornings). Blood pressure and body weight was monitored daily. […] Hydrogel was applied daily or twice daily as indicated using a 5 ml syringe to measure volume. For abdominal experiments, the indicated volume of hydrogel was applied on the belly around the belly button in a radius of 10 cm. The same volume was applied for hip areas. For leg experiments, 2.5 ml was applied on each leg. Skinfold was assessed by measuring thickness of skin at hips and belly 4 cm from belly button using a skinfold measuring device ([…]-120). […] Experiments are the average of two experiments (n=2). […] Experiments are an average of 2 or 3 runs (n=2-3).

[9] = female, human, 15 min, 10 microM
Procedure: Human belly adipose tissue was obtained from obese female subjects that underwent esthetic surgery. Tissue was pottered (Potter RW 19 Nr 29795 of Janke & Kunkel KG) in PBS solution (Irvine Scientific) with 5 mM D(+)-glucose monohydrate at 530 rpm using a Teflon potter tip.
Tissue suspension (1, 7.5, 25 or 240 mg fat/ml PBS, or plasma) was stirred and 1.98 ml aliquots were transferred to polypropylene 2 ml screwcap vials (Sarstedt). […] When inhibition of lipase was studied, propranolol or orlistat were added 5 minutes before addition of the prodrug esters (FIG. 10).
15 minutes after addition of the prodrug, lipolysis was stopped by adding 20 microliter of 1.8% HCl. Samples were spun down (13000 rpm for 3 min at 4° C.) and supernatants were stored at −18° C. for analysis.
Samples were analyzed using HPLC UV. A Gilson 234 auto-injector and Shimadzu hplc pump (10 AdVP) was used in conjunction with a shimadzu UV (10AVp) set at 270 nm. Samples were separated using a reversed phase HPLC column (Thermo BDS Hypersil C18 150 mm×2.1 mm, 3 micrometer). The mobile phase consisted of 1.6 g KH2PO4, 110 mg sodium 1-heptane sulfonate, 1 1 ultrapure water, 15 mL methanol and 1 ml acetic acid at a flowrate of 0.175 ml/min.

[10] = test system: Male wistar rats; assay: In vivo effect of hydrogel treatment on waist, weight and plasma glycerol of rats (Example 5); set-up: species or system rat
Procedure: Male wistar rats (approx. 500 g) were weight daily and waistline was measured. Animals were shaven once weekly at least 12 hours before next treatment to ensure wound healing.
Animals were first treated for 1 month with carbomer hydrogel not containing prodrugs (twice daily abdominal application 3 by 3 cm) , after which animals were treated with 0.5 ml carbomer hydrogel containing 5 mg/ml octopamine decanoate (application concentration 0.277 mg/cm^2). Tail vena blood draws (100 microliter plasma, 5 microliter heparine 500 IE per 100 microliter blood) were taken on the day −8, 21, 36 (start of compound treatment), 51 and 58. Blood was spun off (10 min 14 KRPM) and plasma was stored at −80.
as §1, with “Blood samples were” for “Samples were”, “analyzed for glycerol” for “analyzed”, “with shimadzu” for “with Shimadzu”, “ADvp hplc” for “ADvp HPLC”, “RF 10Axl).” for “RF 10Ax1).”

[11] = test system: human volunteers; assay: Blood pressure, heart rate and side effects in human volunteers (Example 10); conditions: humans
[12] = In vitro ester hydrolysis assay, control in PBS without tissue (spontaneous hydrolysis); format: physicochemical; conditions: 30 degrees
Procedure: (§2) Octopamine released was measured using a 50 ml beaker thermostated at 30 degrees. 30 ml PBS (stirred) was pumped at 1 ml/min (Gilson minipulse 3) through a UV detector (SPD-10Avp Shimadzu UV/VIS) set at 280 nm and 2.56 AUFS. The outlet was recirculated back to the beaker. UV signal was recorder on a flatbed recorder (Kipp), set at 1 mm/min and 1 mV gain.
(§3) Octopamine and octopamine decanoate solutions (1 mM) were made in ultrapure water adding 1 microliter/ml of 1.8% hydrochloride acid. Octopamine decanoate was sonicated for 30 min at 30 degrees.
(§4) Upon stabilization of the UV detector on PBS, 1 ml of tissue suspension was added to the PBS. Upon stabilization of the UV signal, 5 ml of 1 mM of octopamine decanoate was added. Control experiments were performed without addition of tissue suspension in order to monitor spontaneous hydrolysis of decanoate ester in PBS.

[13] = In vitro ester hydrolysis assay in PBS/human fat suspension; format: in vitro ADME; conditions: PBS/human fat tissue at concentrations three times higher than rat tissue, in 110 min
Procedure: Abdominal fat tissue was harvested from male wistar rats (400 g, Harlan Zeist) and stored at −80° C. until use. Human fat tissue was obtained from esthetic surgery and stored at −80° C. until use. Tissue was thuraxed (80 mg/ml for rat tissue and 240 mg/ml for human tissue) for 1 min in Phosphate buffered saline (PBS (Irvine Scientific).
as §2, §3, §4

[14] = humans n=2, hydrogel on belly and hips, 2.5 ml once daily or 5 ml twice daily, after 16 days
[15] = hydrogel 5 mg/ml, 5 ml twice daily on belly and hips

Molecule: CCOC(=O)COc1ccc2c(c1)C[C@@H](NC[C@H](O)c1cccc(Cl)c1)CC2 [SR 58611A, Amibegron]
- Glycerol production (FIG. 20) [1]: increased

Molecule: CC(C)NC[C@H](O)COc1cccc2ccccc12 [propranolol, (S)-(-)-Propranolol HCl]
- Effect on hydrolysis of octopamine decanoate in fat suspension [2]: decreases
- Effect on hydrolysis of synephrine decanoate in fat suspension [2]: decreases
- Glycerol content ([1]; concentrations above 1000 nM): decreased
- Glycerol content ([1]; concentrations from 0.1 to at least 1000 nM): more or less constant

Molecule: Cn1c(=O)c2c(ncn2C)n(C)c1=O [caffeine]
- Glycerol production (FIG. 20) [1]: increased

Molecule: Cc1cccc(C)c1N=C1NCCCS1 [xylazine, Xylazine]
- Glycerol production (FIG. 20) [1]: reduced

Molecule: p-Octopamine [reference compound]
- Penetration through skin and fat tissue ([3]; 0.25 ml hydrogel applied once, 20 hrs): penetrate through both skin and fat tissue
- Plasma levels of free octopamine upon administration of hydrogel ([4]; humans, 2.5 ml or 5 ml hydrogel): acceptable systemic concentrations
- Penetration of octopamine through skin [5]: minor penetration
- Glycerol production (levels) ([6]; end concentration 1 microM, P=0.10): increased
- Stability in PBS [7]: stable
- Decrease of waistline [8, 14]: without effect
- Decrease of waistline ([8]; single individual, hydrogel on belly and hips, after 21 days): without effect

Molecule: CC(C)(C)NCC(O)COc1cccc2[nH]c(=O)[nH]c12 (stereo not drawn) [CGP12177]
- Glycerol production (FIG. 20) [1]: increased

Molecule: CCCCCCCCCC(=O)Oc1ccc(C(O)CNC)cc1 (stereo not drawn) [synephrine decanoate, 4-(1-hydroxy-2-(methylamino)ethyl)phenyl decanoate]
- Base level of hydrolysis in fat suspension [9]: 40-45%
- Hydrolysis in PBS compared with plasma or fat tissue ([7]; PBS at 37 degrees): much lower rate

Molecule: CCc1ccccc1OC[C@@H](O)CN[C@H]1CCCc2ccccc21 [SR 59230]
- Glycerol production (FIG. 20) [1]: reduced

Molecule: COC(=O)[C@@H]1[C@H]2C[C@H]3c4[nH]c5ccccc5c4CCN3C[C@@H]2CC[C@@H]1O [yohimbine, Yohimbine]
- Glycerol production (FIG. 20) [1]: increased

Molecule: CNCC(O)c1ccc(O)cc1 (racemic) [synephrine, p-synephrine, reference compound]
- Stability in PBS ([7]; PBS at 37 degrees): stable

Molecule: C[C@H](Cc1ccc2c(c1)OC(C(=O)[O-])(C(=O)[O-])O2)NC[C@H](O)c1cccc(Cl)c1.[Na+].[Na+] [CL 316243]
- Glycerol production (FIG. 20) [1]: increased

Molecule: CCCCCCCCCCC[C@@H](C[C@@H]1OC(=O)[C@H]1CCCCCC)OC(=O)[C@H](CC(C)C)NC=O [Orlistat]
- Effect on hydrolysis of octopamine decanoate in fat suspension [2]: further suppresses
- Effect on hydrolysis of synephrine decanoate in fat suspension [2]: further suppresses

Molecule: CCCCCCCCCC(=O)Oc1ccc(C(O)CN)cc1 (stereo not drawn) [octopamine decanoate, 4-(2-amino-1-hydroxyethyl)phenyl decanoate]
- Penetration through skin and fat tissue [3]: penetrate through both skin and fat tissue
- Plasma levels of free octopamine upon administration of hydrogel ([4]; human, in vivo): did not result in unacceptable plasma levels
- Animal weights ([10]; 0.5 ml hydrogel 5 mg/ml twice daily abdominal): remained inclining according to their growth curve
- Reduction of waistline ([10]; 0.5 ml hydrogel 5 mg/ml twice daily abdominal, after 3 weeks of treatment): about 10%
- Plasma glycerol levels ([10]; after 15 days of treatment, P=0.101): increased
- Plasma glycerol levels ([10]; after 22 days of treatment, P=0.024): reaching significance
- Base level of hydrolysis in fat suspension [9]: 40-45%
- Blood pressure (systole and diastole) [11, 15]: remained normal
- Heart rate [11, 15]: remained normal
- Side effects ([11]; topical hydrogel treatment regimes): No side effects were reported
- Spontaneous hydrolysis into octopamine, rate [12]: 10 % per 110 min
- Glycerol production (levels) ([6]; end concentration 10 microM, P=0.047): reached significance
- Conversion by hydrolysis [13]: over 40%
- Hydrolysis in PBS compared with plasma or fat tissue ([7]; PBS at 37 degrees): much lower rate
- Decrease of waistline [8, 14]: about 4%
- Reduction of skinfold (belly and hip) ([8]; hydrogel 5 mg/ml, 5 ml twice daily, in 20 days): 10-20%
